# Laboratory results published in patent publication US20230263798A1, “COMPOSITIONS AND METHODS FOR TREATING THERAPY RESISTANT CANCER” (The General Hospital Corporation, priority 2020, published 2023).
# “Also recorded” adds a separate entry of the source.
# Key:
# Assay type in all cases: cell-based
# [1] = tested on: CD14+ monocytes, CD8+ T cells, and NK (NK92) cells; test: Co-culture of treated cancer cells with immune cells; settings: untreated or doxorubicin or gemcitabine treated cells plus agent
# Excerpt: APOBEC3B would lead to neoepitopes that could trigger the immune system. However, this is not readily seen as inhibitors of immune cells such as TGF-β that inhibits NK cells are increased in doxorubicin treated breast cancer cells. […] M6A also downregulates antiviral innate immune response while promoting ADAR1 that suppresses antiviral immunity. Therefore, inhibition of METTL3 would activate them.
# [2] = tested on: MCF7 cells; test: Doxorubicin chemosurvival of MCF7 cells; settings: for doxorubicin chemosurvival with co-treatment: 500 nM Doxorubicin treated MCF7 cells co-treated with agent (5 uM Trazodone, 5 uM ISRIB, 6uM Enzastaurin) vs DMSO buffer
# Method: This was tested in METTL3 overexpression cells compared to CD-M3 cells compared to control Actin mRNA by qPCR. […] 500 nM Doxorubicin treated MCF7 cells were co-treated with (i) 5 uM of Trazodone, (ii) 5 uM of ISRIB, or DMSO buffer. […] Data are average of 3 replicates +/-SEM. Actin and Tubulin are loading controls for Western blots. See also FIG. 8A-8l.
# (§1) FIGS. 8C and 8D show Western blot analysis of PARP1, phospho-elF2α, METTL3 with doxorubicin or Sal003 treatment. […] 500 nM Doxorubicin treated MCF7 cells were co-treated with 6uM of Enzastaurin or DMSO buffer. […] Data are average of 3 replicates +/-SEM.
# [3] = tested on: METTL3; test: Western blot analysis of METTL3 in MCF7 cells; settings: for METTL3 level in doxorubicin treated cells co-treated with agent: doxorubicin treated cells plus agent vs buffer treated
# Excerpt: The Western blot includes samples with control shRNA or shMETTL3. […] Tubulin and Histone serve as Western blot loading controls. Data are average of 3 replicates +/-SEM. See also FIGS. 2A-2G.
# (§2) Data are average of 3 replicates +/-SEM. Tubulin serves as the loading control.
# (§3) Tubulin and Histone serve as Western blot loading controls. Data are average of 3 replicates +/-SEM. See also FIGS. 4A-4H.
# (§4) Actin and Tubulin are loading controls for Western blots. Data are average of 3 replicates +/-SEM.
# as §1
# To determine the mechanisms of specific mRNA expression in chemosurviving cancer cells, we examined RNA binding regulators in chemosurviving MCF7 breast cancer cells, isolated after doxorubicin chemotherapy treatment.
# [4] = tested on: phospho-elF2α; test: Western blot of elF2α phosphorylation in MCF7 cells; settings: for elF2α phosphorylation in doxorubicin treated cells with agent: addition to doxorubicin treated cells (FIG. 8F); for elF2α phosphorylation: MCF7 cells, agent alone, Western blot
# Method: as §1
# [5] = tested on: METTL3; test: Western blot of METTL3 in THP1 cells; settings: 1 µM Cytarabine over time
# [6] = tested on: phospho-elF2α; test: Western blot of elF2α phosphorylation in THP1 cells; settings: 1 µM Cytarabine over time
# [7] = tested on: METTL14; test: Western blot analysis of METTL14 in MCF7 cells; settings: for METTL14 level in doxorubicin treated cells co-treated with agent: doxorubicin treated cells plus agent (FIGS. 3D and 3E)
# Excerpt: as §3, §4
# (§5) Western blot is shown of other RNA binding proteins that increase in mass spectrometry data. […] FIGS. 6J and 6K show Hexim, PPM1G and HuR increase in chemotreated patient samples and on doxorubicin treatment.
# (§6) If METTL3 is increased by Sal003, then m6A on RNA should increase in such conditions.
# [8] = tested on: phospho-elF2α; test: Western blot of elF2α phosphorylation in BT549 cells; settings: over time of treatment
# Method: as §2
# To determine the mechanisms of specific mRNA expression in chemosurviving cancer cells, we examined RNA binding regulators in chemosurviving MCF7 breast cancer cells, isolated after doxorubicin chemotherapy treatment. […] The increase observed is transient and is not observed at 48 h of treatment (FIG. 2A).
# [9] = tested on: METTL3; test: Western blot of METTL3 in BT549 cells; settings: over time of treatment
# [10] = tested on: m6A on RNA; test: m6A on ribosomal RNA depleted RNA (dot blot, 2D-TLC)
# Method: The Western blot includes samples with control shRNA or shMETTL3. […] Tubulin and Histone serve as Western blot loading controls. Data are average of 3 replicates +/-SEM. See also FIGS. 2A-2G. […]
# To test whether the increased m6A modification enzymes lead to increased m6A modification on RNA, ribosomal RNA depleted RNA from doxorubicin treated cells compared to untreated cells by dot blot analyses was tested. […] Consistent with decreased METTL3 upon knockdown, the dot blot signal is depleted when METTL3 is knocked down (FIG. 1B). Second, RNA from doxorubicin treated cells for m6A by two-dimensional-thin layer chromatography separation (2D-TLC) was performed (H. Grosjean, G. Keith, L. Droogmans, Detection and quantification of modified nucleotides in RNA using thin-layer chromatography. Methods in molecular biology (Clifton, N.J.) 265, 357-391 (2004)).
# [11] = tested on: Hexim1; test: Western blot of Hexim1; settings: treated cells
# Excerpt: as §5
# Other RNA binding proteins such as HEXIM1 and PPM1G that increase in doxorubicin surviving cells also associate with METTL3 mRNA and with HuR. The indirect associated protein, Hexim1 is a transcription regulator but also associates with other complexes and RNAs and promotes mRNA stability under nucleotide stress. […] The phosphatase PPM1G is known to associate with Hexim1 and is activated by DNA damage/ATM signaling upon chemotherapy treatment, and upon PI3K/Akt inhibition, consistent with these conditions where METTL3 increases. On Akt inhibition, PPM1G dephosphorylates 4EBP; this inhibits canonical translation, consistent with specific mRNA translation elicited in these conditions.
# Therefore, we tested whether Hexim1 was required for METTL3 levels.
# [12] = tested on: ATF4; test: Western analysis of ATF4 (ISR response gene); settings: for ATF4 level in doxorubicin treated cells co-treated with agent: doxorubicin treated cells plus agent vs buffer treated
# Excerpt: as §6
# [13] = tested on: METTL3 mRNA; test: METTL3 mRNA level and translation (qPCR, polysome fractionation, nascent amino acid labeling); settings: treated vs buffer treated cells, polysome fractionation and qPCR
# Method: as §3, §4
# To verify that the increase in METTL3 was at the translation level, polysome analysis was conducted first. […] We next verified increased polysome association of METTL3 mRNA with Y10B antibody immunoprecipitation in doxorubicin treated and in Sal003 cells compared to buffer treated cells (FIGS. 3I and 4F).
# [14] = tested on: PARP1; test: Western blot analysis of PARP1; settings: treated cells
# Method: as §1
# Consistently, doxorubicin treated cells are sensitive to PARP inhibitors, such as Talazoparib (BMN-673, FIG. 8B).
# [15] = MCF7 cells, agent alone vs untreated/buffer, Western blot
# [16] = ribosomal RNA depleted RNA from treated vs untreated MCF7 cells, dot blot or 2D-TLC
molecule,measurement,setting,value
Nc1ncnc2c1nnn2[C@@H]1O[C@H](CO)[C@@H](O)[C@H]1O [8-azaadenosine],survival of treated cancer cells co-cultured with immune cells,[1],sensitive to anti-tumor immunity
same,doxorubicin chemosurvival with co-treatment,[2],reduced doxorubicin survival
[H]/N=C(/N)N/C(=N/[H])NCCc1ccccc1 [phenformin],METTL3 level in doxorubicin treated cells co-treated with agent,[3]; Western blot,decreased induction
same,survival of treated cancer cells co-cultured with immune cells,[1],loss of survival
same,doxorubicin chemosurvival with co-treatment,[2],decreased chemosurvival; also recorded: reduced doxorubicin survival
same,elF2α phosphorylation in doxorubicin treated cells with agent,[4],reduction
Nc1ccn([C@@H]2O[C@H](CO)[C@@H](O)[C@@H]2O)c(=O)n1 [Cytarabine],METTL3 level,[5],transient increase
same,elF2α phosphorylation,[6],transient increase
C/C=C(/C)C(=O)O[C@H]1C(C)=C2[C@H]([C@@H]1OC(=O)CCCCCCC)[C@@](C)(OC(C)=O)C[C@H](OC(=O)CCC)[C@@]1(O)[C@H]2OC(=O)[C@@]1(C)O [thapsigargin],METTL3 level,[3]; [15],increase
same,elF2α phosphorylation,[4],induces
same,METTL14 level,[7]; [15],increase
C[S+]([O-])c1ccc(-c2nc(-c3ccncc3)c(-c3ccc(F)cc3)[nH]2)cc1 (centres unmarked) [SB203580],METTL3 level in doxorubicin treated cells co-treated with agent,[3]; Western blot,reduces METTL3 increase
COc1ccc(COc2cc3oc(=O)c4cc(C(C)O)ccc4c3cc2OC)cc1 (centres unmarked) [Palomid 529],METTL3 level,[3]; [15],Increase
CC(=O)O[C@H]1C(=O)[C@@]2(C)[C@H]([C@H](OC(=O)c3ccccc3)[C@]3(O)C[C@H](OC(=O)[C@H](O)[C@@H](NC(=O)c4ccccc4)c4ccccc4)C(C)=C1C3(C)C)[C@]1(OC(C)=O)CO[C@@H]1C[C@@H]2O [Taxol],elF2α phosphorylation,[8],increase over time
same,METTL3 level,[9],increase over time
CC(C)(C)Cn1c(N)nc2ccc(-c3[nH]c(C(C)(C)C)nc3-c3ccc(F)cc3)nc21 [LY2228820],METTL3 level in doxorubicin treated cells co-treated with agent,[3]; Western blot,reduces METTL3 increase
Cn1c(=O)n(-c2ccc(C(C)(C)C#N)cc2)c2c3cc(-c4cnc5ccccc5c4)ccc3ncc21 [BEZ 235],METTL3 level,[3]; [15],Increase
same,elF2α phosphorylation,[4],elF2α phosphorylation
poly I:C,METTL3 level,[3]; [15],increase
same,m6A on RNA,[10]; [16],increased
same,Hexim1 level,[11],increases
same,elF2α phosphorylation,[4],induces
same,METTL14 level,[7]; [15],increase
O=[N+]([O-])c1ccc(Nc2nc(N3CCOCC3)nc(N3CCOCC3)n2)cc1 [MHY1485],METTL3 level,[3]; [15],decreased
CC(=O)NCCCCCCNC(C)=O [HMBA],METTL3 level,[3]; [15],increased
same,Hexim1 level,[11],increased
same,elF2α phosphorylation,[4],elF2α phosphorylation
same,METTL14 level,[7]; [15],increases
CCC(=O)N1CCN(c2ccc(-n3c(=O)ccc4cnc5ccc(-c6cnc7ccccc7c6)cc5c43)cc2C(F)(F)F)CC1 [Torin1],METTL3 level,[3]; MCF7 3D tumor spheres,increase
same,METTL3 level,[3]; [15],increased
same,m6A on RNA,"[10]; MCF7 3D tumor spheres, dot blot",increased
same,elF2α phosphorylation,[4],elF2α phosphorylation
same,METTL14 level,[7]; MCF7 3D tumor spheres,increase
Cn1ncnc1[C@H]1c2n[nH]c(=O)c3cc(F)cc(c23)N[C@@H]1c1ccc(F)cc1 [Talazoparib],doxorubicin chemosurvival with co-treatment,[2],sensitive
CN(C)C(=N)N=C(N)N [metformin],METTL3 level in doxorubicin treated cells co-treated with agent,[3]; Western blot,decreased induction
same,survival of treated cancer cells co-cultured with immune cells,[1],loss of survival
same,doxorubicin chemosurvival with co-treatment,[2],decreased chemosurvival
same,elF2α phosphorylation in doxorubicin treated cells with agent,[4],reduction
Cn1cc(C2=C(c3cn(C4CCN(Cc5ccccn5)CC4)c4ccccc34)C(=O)NC2=O)c2ccccc21 [Enzastaurin],METTL3 level in doxorubicin treated cells co-treated with agent,[3]; Western blot,reduced
same,doxorubicin chemosurvival with co-treatment,[2],reduced
O=C(COc1ccc(Cl)cc1)NC1CCC(NC(=O)COc2ccc(Cl)cc2)CC1 (centres unmarked) [ISRIB],METTL3 level in doxorubicin treated cells co-treated with agent,[3]; Western blot,do not show increase
same,survival of treated cancer cells co-cultured with immune cells,[1],loss of survival
same,doxorubicin chemosurvival with co-treatment,[2],significant decrease
same,ATF4 level in doxorubicin treated cells co-treated with agent,[12],do not show increase
same,METTL14 level in doxorubicin treated cells co-treated with agent,[7],prevent
O=c1n(CCCN2CCN(c3cccc(Cl)c3)CC2)nc2ccccn12 [trazodone],METTL3 level in doxorubicin treated cells co-treated with agent,[3]; Western blot,do not show increase
same,survival of treated cancer cells co-cultured with immune cells,[1],loss of survival
same,doxorubicin chemosurvival with co-treatment,[2],significant decrease
same,doxorubicin chemosurvival of shMETTL3 cells with agent,"[2]; METTL3 depleted (shMETTL3) cells, doxorubicin plus Trazodone vs buffer (FIG. 8A)",Synergistic decrease in chemosurvival was not observed
same,ATF4 level in doxorubicin treated cells co-treated with agent,[12],do not show increase
same,METTL14 level in doxorubicin treated cells co-treated with agent,[7],prevent
O=C(/C=C/c1ccccc1)NC(NC(=S)Nc1ccc(Cl)cc1)C(Cl)(Cl)Cl (centres unmarked) [Sal003],METTL3 level,[3]; [15],increased
same,m6A on RNA,[10]; [16],increased
same,METTL3 mRNA on polysomes compared to monosomes,[13],increased
same,PARP1 level,[14],increases
same,non-canonical translation of ATF4,"[12]; MCF7 cells, agent alone",induced
same,elF2α phosphorylation,[4],prevented dephosphorylation
same,METTL14 level,[7]; [15],increased
Nc1ccn([C@@H]2O[C@H](CO)[C@@H](O)C2(F)F)c(=O)n1 [Gemcitabine],METTL3 level,[3]; [15],increase over time
same,elF2α phosphorylation,[8],increase over time
same,elF2α phosphorylation,[4],increase over time
same,METTL3 level,[9],increase over time
